ChEMBL document CHEMBL3745599, “The anti-tumor activity and mechanism of alkaloids from Aconitum szechenyianum Gay” (Bioorg Med Chem Lett, 2016)
Active and inactive are the calls of the source. The rule behind the calls is not given here.

Columns and labels:
[1] = target: T1, MAP kinase p38 (Homo sapiens) (UniProt O15264+Q15759+Q16539+P53778); test: Activation of p38 in human A549 cells assessed as upregulation of Bax expression by Western blot analysis; type: cell-based
[2] = target: T1, MAP kinase p38 (Homo sapiens); test: Activation of p38 in human A549 cells assessed as upregulation of cleaved caspase-9 level by Western blot analysis; type: cell-based
[3] = system: A549; test: Induction of apoptosis in human A549 cells assessed as condensed chromatin at 100 to 800 ug/ml after 24 hrs by Hoechst 33258 staining-based fluorescence microscopic analysis; type: functional, cell-based
[4] = system: A549; test: Induction of apoptosis in human A549 cells assessed as appearance of loosely arranged cells at 100 to 800 ug/ml after 24 hrs by inverted phase contrast microscopic analysis; type: functional, cell-based
[5] = target: T1, MAP kinase p38 (Homo sapiens); test: Activation of p38 in human A549 cells assessed as downregulation of cytochrome c expression in mitochondria by Western blot analysis
[6] = Cytotoxicity against HEK293A cells assessed as cell viability at 1600 ug/ml after 44 hrs by MTT assay; type: cell-based; settings: human, hek293-a
[7] = system: A549; test: Antiproliferative activity against human A549 cells assessed as cell viability at 100 to 1600 ug/ml after 44 hrs by MTT assay; type: functional, cell-based
[8] = system: A549; test: Induction of apoptosis in human A549 cells after 24 hrs by inverted phase contrast microscopic analysis; type: functional, cell-based
[9] = target: T1, MAP kinase p38 (Homo sapiens); test: Activation of p38 in human A549 cells assessed as upregulation of DR5 expression by Western blot analysis; type: cell-based
[10] = system: A549; test: Induction of apoptosis in human A549 cells assessed as cell shrinkage at 100 to 800 ug/ml after 24 hrs by inverted phase contrast microscopic analysis; type: functional, cell-based
[11] = system: A549; test: Induction of apoptosis in human A549 cells assessed as nuclear fragmentation at 100 to 800 ug/ml after 24 hrs by Hoechst 33258 staining-based fluorescence microscopic analysis; type: functional, cell-based
[12] = system: A549; test: Upregulation of phosphorylated p38 expression in human A549 cells by Western blot analysis; type: functional, cell-based
[13] = system: A549; test: Upregulation of p38 expression in human A549 cells by Western blot analysis; type: functional, cell-based
[14] = target: T1, MAP kinase p38 (Homo sapiens); test: Activation of p38 in human A549 cells assessed as upregulation of cytochrome c expression in cytosol by Western blot analysis; type: cell-based
[15] = target: T1, MAP kinase p38 (Homo sapiens); test: Activation of p38 in human A549 cells assessed as downregulation of procaspase-8 level by Western blot analysis; type: cell-based
[16] = system: HepG2; test: Antiproliferative activity against human HepG2 cells assessed as cell viability at 100 to 1600 ug/ml after 44 hrs by MTT assay; type: functional, cell-based
[17] = target: T1, MAP kinase p38 (Homo sapiens); test: Activation of p38 in human A549 cells assessed as downregulation of Bcl2 expression at 100 to 800 ug/ml by Western blot analysis; type: cell-based
[18] = Cytotoxicity against HEK293A cells assessed as cell viability at 100 to 800 ug/ml after 44 hrs by MTT assay; type: cell-based; settings: human, hek293-a
[19] = system: HeLa; test: Antiproliferative activity against human HeLa cells assessed as cell viability at 100 to 1600 ug/ml after 44 hrs by MTT assay; type: functional, cell-based
[20] = system: A549; test: Induction of apoptosis in human A549 cells assessed as change in cytoplasmic vacuole at 100 to 800 ug/ml after 24 hrs by inverted phase contrast microscopic analysis; type: functional, cell-based
[21] = system: A549; test: Induction of apoptosis in human A549 cells assessed as change from fusiform shape to round shape cell at 100 to 800 ug/ml after 24 hrs by inverted phase contrast microscopic analysis; type: functional, cell-based
[22] = target: T1, MAP kinase p38 (Homo sapiens); test: Activation of p38 in human A549 cells assessed as upregulation of TNF-R1 expression by Western blot analysis; type: cell-based
[23] = system: A549; test: Induction of apoptosis in human A549 cells assessed as loss in mitochondrial membrane potential after 24 hrs by JC-1 dye-based fluorescence microscopic analysis; type: functional, cell-based
[24] = target: T1, MAP kinase p38 (Homo sapiens); test: Activation of p38 in human A549 cells assessed as increase in Bax to Bcl2 ratio by Western blot analysis; type: cell-based
[25] = target: T1, MAP kinase p38 (Homo sapiens); test: Activation of p38 in human A549 cells assessed as downregulation of procaspase-3 level by Western blot analysis; type: cell-based

| Structure (SMILES) | Activity [1] | Activity [2] | Activity [3] | Activity [4] | Activity [5] | Activity [6] | Activity [7] | Activity [8] | Activity [9] | Activity [10] | Activity [11] | Activity [12] | Activity [13] | Activity [14] | Activity [15] | Activity [16] | Activity [17] | Activity [18] | Activity [19] | Activity [20] | other results |
| --- | --- | --- | --- | --- | --- | --- | --- | --- | --- | --- | --- | --- | --- | --- | --- | --- | --- | --- | --- | --- | --- |
| C=C1[C@H]2C[C@@]3([C@@H]1O)[C@@H](CC2=O)[C@@]12C4[C@@H]3C[C@@H]1[C@@](C)(CC[C@@H]2O)CN4CC | Dose-dependent effect | Active | Active | Active | Dose-dependent effect | Toxic | Active | Dose-dependent effect | Dose-dependent effect | Active | Active | Dose-dependent effect | Dose-dependent effect | Dose-dependent effect | Dose-dependent effect | Active | Active | Non-toxic | Active | Active | Activity [21]: Active; Activity [22]: Dose-dependent effect; Activity [23]: Dose-dependent effect; Activity [24]: Dose-dependent effect; Activity [25]: Dose-dependent effect |
| CCN1C[C@]2(COC)[C@H](O)C[C@@H](OC)[C@@]34[C@@H]5C[C@@]6(O)[C@H](OC(=O)c7ccccc7)[C@@H]5[C@@](OC(C)=O)([C@@H]([C@H](OC)[C@H]23)[C@H]14)[C@@H](O)[C@@H]6OC | Dose-dependent effect | Active | Active | Active | Dose-dependent effect | Toxic | Active | Dose-dependent effect | Dose-dependent effect | Active | Active | Dose-dependent effect | Dose-dependent effect | Dose-dependent effect | Dose-dependent effect | Active | Active | Non-toxic | Active | Active | Activity [21]: Active; Activity [22]: Dose-dependent effect; Activity [23]: Dose-dependent effect; Activity [24]: Dose-dependent effect; Activity [25]: Dose-dependent effect |
| CCN1C[C@@]2(COC)[C@H]3[C@@H](OC)[C@H]4C1[C@]3([C@@H](OC)C[C@H]2OC(C)=O)[C@@H]1C[C@@]2(O)[C@H](OC(=O)c3ccccc3)[C@@H]1[C@]4(OC(C)=O)[C@@H](O)[C@@H]2OC | Dose-dependent effect | Active | Active | Active | Dose-dependent effect | Toxic | Active | Dose-dependent effect | Dose-dependent effect | Active | Active | Dose-dependent effect | Dose-dependent effect | Dose-dependent effect | Dose-dependent effect | Active | Active | Non-toxic | Active | Active | Activity [21]: Active; Activity [22]: Dose-dependent effect; Activity [23]: Dose-dependent effect; Activity [24]: Dose-dependent effect; Activity [25]: Dose-dependent effect |
| CCN1C[C@]2(COC)CC[C@H](OC)[C@]34C1[C@H]([C@H](OC)[C@H]23)[C@]1(OC(C)=O)[C@H]2[C@@H](OC(=O)c3ccccc3)[C@](O)(C[C@H]24)[C@@H](OC)[C@@H]1O | Dose-dependent effect | Active | Active | Active | Dose-dependent effect | Toxic | Active | Dose-dependent effect | Dose-dependent effect | Active | Active | Dose-dependent effect | Dose-dependent effect | Dose-dependent effect | Dose-dependent effect | Active | Active | Non-toxic | Active | Active | Activity [21]: Active; Activity [22]: Dose-dependent effect; Activity [23]: Dose-dependent effect; Activity [24]: Dose-dependent effect; Activity [25]: Dose-dependent effect |
